# In paper PMC4987652 (Scientific Reports, 2016):
# “Also recorded” adds a separate entry of the source.
# What was measured:
# human MOR [1] = target: T1, human MOR (Homo sapiens, UniProt P35372); assay type: cell-based; set-up: Human MOR cDNAs (NM_000914) with or without a stop codon were amplified from the Flexi ORF clone; expressed in transfected cells; pcDNA3.1(+); the cAMP line also carries pGloSensor-22F
# human MOR-GFP = target: T2, human MOR-GFP (Homo sapiens, UniProt P35372); assay type: cell-based
# T2 construct: Human MOR cDNAs (NM_000914) with or without a stop codon were amplified from the Flexi ORF clone; expressed in transfected cells
# T2 sequence (P35372 whole entry): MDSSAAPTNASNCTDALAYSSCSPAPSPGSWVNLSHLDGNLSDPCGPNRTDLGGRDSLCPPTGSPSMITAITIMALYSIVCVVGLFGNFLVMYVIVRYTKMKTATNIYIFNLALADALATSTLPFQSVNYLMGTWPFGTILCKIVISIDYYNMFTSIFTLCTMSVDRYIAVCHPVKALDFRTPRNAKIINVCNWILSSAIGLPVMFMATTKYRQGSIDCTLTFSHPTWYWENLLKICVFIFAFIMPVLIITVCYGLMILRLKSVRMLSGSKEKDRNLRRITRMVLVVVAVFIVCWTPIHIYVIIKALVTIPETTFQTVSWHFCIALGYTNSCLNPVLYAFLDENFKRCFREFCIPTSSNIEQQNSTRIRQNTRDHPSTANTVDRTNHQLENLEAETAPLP
# rat whole brain [2] = assay: Receptor binding assay, primary screening, [3H]-naloxone, rat whole brain; conditions: 10 μM test compound, mean n = 2
# [3] = target: human δ opioid receptor (DOR) (Homo sapiens, UniProt P41143); assay: Receptor binding assay, primary screening, [3H]-naltrindole, DOR; conditions: 10 μM test compound, mean n = 2
# Sequence of human δ opioid receptor (DOR) (P41143 whole entry): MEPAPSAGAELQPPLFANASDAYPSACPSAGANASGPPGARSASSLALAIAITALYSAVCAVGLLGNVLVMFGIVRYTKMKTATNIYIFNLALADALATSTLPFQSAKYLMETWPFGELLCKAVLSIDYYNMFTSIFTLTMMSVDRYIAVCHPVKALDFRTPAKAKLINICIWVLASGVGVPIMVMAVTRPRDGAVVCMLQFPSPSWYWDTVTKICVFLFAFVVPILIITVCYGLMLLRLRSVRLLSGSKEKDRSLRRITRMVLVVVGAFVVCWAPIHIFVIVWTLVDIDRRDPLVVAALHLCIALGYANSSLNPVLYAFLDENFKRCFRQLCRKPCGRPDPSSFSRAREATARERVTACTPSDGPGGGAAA
# human KOR = human KOR (Homo sapiens, UniProt P41145); assay: Receptor binding assay, primary screening, [3H]-diprenorphine, KOR; conditions: 10 μM test compound, mean n = 2
# Sequence of human KOR (P41145 whole entry): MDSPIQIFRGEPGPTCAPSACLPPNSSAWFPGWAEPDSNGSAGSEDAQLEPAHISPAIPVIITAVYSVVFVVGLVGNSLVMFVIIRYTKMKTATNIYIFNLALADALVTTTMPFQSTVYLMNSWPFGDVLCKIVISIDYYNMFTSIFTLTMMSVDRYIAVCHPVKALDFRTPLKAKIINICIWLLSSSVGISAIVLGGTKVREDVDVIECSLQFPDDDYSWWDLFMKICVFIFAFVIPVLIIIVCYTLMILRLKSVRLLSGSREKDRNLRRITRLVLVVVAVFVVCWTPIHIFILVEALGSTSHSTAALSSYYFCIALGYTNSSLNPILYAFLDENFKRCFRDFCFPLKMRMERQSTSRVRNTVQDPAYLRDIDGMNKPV
# human MOR [4] = target: T1, human MOR; assay: biochemical; assay type: binding; conditions: for % Inhibition of [3H]-diprenorphine binding, MOR: 10 μM test compound, mean n = 2
# [5] = target: human nociception receptor (NOP) (Homo sapiens, UniProt P41146); assay: Receptor binding assay, primary screening, [3H]-nociceptin, NOP; conditions: 10 μM test compound, mean n = 2
# Sequence of human nociception receptor (NOP) (P41146 whole entry): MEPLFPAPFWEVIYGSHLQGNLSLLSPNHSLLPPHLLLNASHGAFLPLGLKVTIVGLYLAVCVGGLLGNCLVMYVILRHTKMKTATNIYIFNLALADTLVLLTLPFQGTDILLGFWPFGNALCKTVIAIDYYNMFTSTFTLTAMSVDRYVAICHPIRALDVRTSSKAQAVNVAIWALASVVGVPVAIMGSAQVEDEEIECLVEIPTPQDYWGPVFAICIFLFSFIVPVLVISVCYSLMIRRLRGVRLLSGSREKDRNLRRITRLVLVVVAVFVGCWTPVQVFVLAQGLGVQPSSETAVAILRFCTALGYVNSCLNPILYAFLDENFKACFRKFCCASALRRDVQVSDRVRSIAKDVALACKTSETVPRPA
# [6] = Rat pharmacokinetic study of GJG, plasma LC/MS/MS; assay type: in vivo; conditions: GJG 1 g/kg oral, 1 h after administration
# Experimental: A pharmacokinetic study of GJG was performed to identify the bioavailable molecules in PAT. GJG (1 g/kg) was orally administered to rats and blood samples were collected 1 h after administration. Then, representative components of PAT in the collected blood samples were measured by LC/MS/MS. […] Therefore, we further investigated whether ignavine and benzoylmesaconine affect the opioid system.
# Male Sprague-Dawley rats (7 weeks, Japan Clea Inc., Tokyo, Japan) were fasted for more than 16 hours with access to water. At 1 h after oral administration of GJG (1.0 g/10 mL/kg, n = 5), blood samples were collected with a heparin-coated syringe and centrifuged at 1,500 × g for 15 minutes at 4 °C. The plasma samples were stored at −80 °C until use.
# Plasma samples were pretreated by solid-phase extraction (Oasis® MCX μ Elution Plate, 30 μm; Waters Corporation, Milford, MA, USA) and injected into the LC/MS/MS system for analysis. Components of GJG in plasma were measured by a QTRAP®5500 system (AB SCIEX, Framingham, MA, USA) equipped with an Agilent 1260 HPLC system (binary pump, online degasser, auto plate-sampler and column oven; Agilent Technologies, Santa Clara, CA, USA). The lower limits for quantification were 0.01 ng/mL for ignavine; 0.002 ng/mL for benzoylaconine; 0.001 ng/mL for benzoylmesaconine, benzoylhypaconine and 14-anisoylaconine.
# human MOR [7] = target: T1, human MOR; assay: biochemical; assay type: binding; set-up: Human MOR cDNAs (NM_000914) with or without a stop codon were amplified from the Flexi ORF clone; expressed in transfected cells; pcDNA3.1(+); the cAMP line also carries pGloSensor-22F
# [8] = set-up: method as in PMID 7116516; conditions: acetic acid-induced writhing and carrageenan paw edema test; cited from earlier work
# normal mice [9] = assay: Tail-flick test; assay type: in vivo
# Experimental: (§1) Analgesic activity of ignavine was investigated by the tail-flick (Fig. 6A) and tail-pressure tests in normal mice (Fig. 6B). […] Maximum activity was shown at a dose of 0.1 mg/kg and analgesic activity was attenuated at higher doses. These dose-dependent relationships were similar to the results of in vitro assays.
# (§2) Antinociceptive responses were evaluated by the tail-flick test (Tail flick unit; Ugo Basile, Comerio, Italy) and the tail-pressure test (Pressure analgesimeter; Ugo Basile). The latency (sec) or weight (g) at which mice struggled or withdrew was considered the nociceptive threshold.
# normal mice [10] = assay: Tail-pressure test; assay type: in vivo
# Experimental: as §1, §2
# rat whole brain [11] = conditions: read-out: Kd of radioligand, rat brain; assay condition of the binding assay; ref MDS Pharma Services; cited from earlier work
# [12] = target: human μ opioid receptor (MOR) (human) (UniProt P35372)
# Sequence of human μ opioid receptor (MOR) (human) (P35372 whole entry): as the sequence (P35372 whole entry) above
# [13] = intra-peritoneal administration, area under the curve
# [14] = intra-peritoneal, attenuated at higher doses
# T1 sequence (P35372 whole entry): as above
compound,measurement,setting,value
"C[C@@H](NC(=O)[C@@H](N)Cc1ccc(O)cc1)C(=O)NCC(=O)N(C)[C@@H](Cc1ccccc1)C(=O)NCCO [DAMGO, D-Ala(2)-N-Me-Phe(4)-Gly-ol(5)-enkephalin, reference compound]",Effect on forskolin-induced increase of intracellular cAMP,human MOR [1],inhibited the increase of intracellular cAMP
same,MOR internalization (vesicle formation),human MOR-GFP,vesicles were observed in the intracellular space; also recorded: induced vesicle formation
COC[C@]12CN(C)C3[C@@H]4[C@H](OC)[C@H]1[C@@]3([C@@H](OC)C[C@H]2O)[C@@H]1C[C@@]2(O)[C@H](OC(=O)c3ccccc3)[C@@H]1[C@]4(O)[C@@H](O)[C@@H]2OC [benzoylmesaconine],"% Inhibition of [3H]-naloxone binding, rat brain",rat whole brain [2],17%
same,"% Inhibition of radioligand binding, DOR",[3],-8%
same,"% Inhibition of [3H]-diprenorphine binding, KOR",human KOR; 10 µM,Neither ignavine nor benzoylmesaconine inhibited
same,"% Inhibition of [3H]-diprenorphine binding, KOR","human KOR; listed as Benzoylmesaconine, 10 µM",3%
same,"% Inhibition of [3H]-diprenorphine binding, MOR",human MOR [4],2%
same,"% Inhibition of radioligand binding, NOP",[5],-9%
same,Plasma concentration after oral GJG,[6],higher concentrations
C=C1C2CC3C4N5CC6(C)C(O)C(OC(=O)c7ccccc7)CC47C6C5CC3(C1O)C7(O)C2 (stereo not shown) [ignavine],"% Inhibition of [3H]-naloxone binding, rat brain",rat whole brain [2]; 10 µM,also inhibited its binding
same,"% Inhibition of [3H]-naloxone binding, rat brain","rat whole brain [2]; listed as Ignavine, 10 µM",92%
same,inhibition at 10 µM,"[3]; read-out: % Inhibition of radioligand binding, DOR",-5%
same,IC50,human MOR [7],2000 nM
same,"Effect on intracellular cAMP levels, ignavine alone",human MOR [1],no effect
same,Fold increase of EC50 of DAMGO,human MOR [1],3.3 fold
same,"Modulation of DAMGO activity in cAMP assay, early period",human MOR [1],enhancing the activity of DAMGO
same,"Modulation of DAMGO activity in cAMP assay, later period",human MOR [1],inhibiting DAMGO activity
same,Modulation of endomorphin-1 (EMP-1) activity in cAMP assay,human MOR [1],positive modulation
same,Modulation of endomorphin-1 activity in cAMP assay,human MOR [1],inhibited them
same,Modulation of morphine (MRP) activity in cAMP assay,human MOR [1],positive modulation
same,Modulation of morphine activity in cAMP assay,human MOR [1],inhibited them
same,Response in cAMP assay in the presence of naloxone,human MOR [1],did not show a clear response
same,"% Inhibition of [3H]-diprenorphine binding, KOR",human KOR,Neither ignavine nor benzoylmesaconine inhibited
same,inhibition at 10 µM,human KOR,0%
same,Anti-inflammatory activity and adverse effects,[8],anti-inflammatory activity
same,"Analgesic activity, tail-flick test",normal mice [9]; [13],inhibited pain
same,"Dose of maximum analgesic activity, tail-flick test",normal mice [9]; [14],0.1 mg/kg
same,"% Inhibition of [3H]-diprenorphine binding, MOR",human MOR [4],almost completely inhibited
same,inhibition at 10 µM,"human MOR [4]; read-out: % Inhibition of [3H]-diprenorphine binding, MOR",90%
same,inhibition at 10 µM,"[5]; read-out: % Inhibition of radioligand binding, NOP",-7%
same,"MOR internalization, ignavine alone",human MOR-GFP,did not affect receptor internalization
same,"Analgesic activity, tail-pressure test",normal mice [10]; [13],inhibited pain
same,"Dose of maximum analgesic activity, tail-pressure test",normal mice [10]; [14],0.1 mg/kg
same,Plasma concentration after oral GJG,[6],highest concentration among the measured components; also recorded: higher concentrations
C=CCN1CC[C@]23c4c5ccc(O)c4O[C@H]2C(=O)CC[C@@]3(O)[C@H]1C5 [naloxone],Kd,rat whole brain [11],1.4 nM
D-Ala(2)-N-Me-Phe(4)-Gly-ol(5)-enkephalin (peptide),"EC50 of DAMGO in the intracellular cAMP assay, fold change with 1 μM ignavine against DMSO, 7.5 min after forskolin",[12],3.8 fold
same,"EC50 of DAMGO in the intracellular cAMP assay, fold change with 10 μM ignavine against DMSO, 23.5 min after forskolin",[12],3.3 fold
